Test system: 435261-313-R-J1-PDC complex spheroid viability
Experiment: Anticancer human tumor 435261-313-R-J1-PDC patient-derived colon adenocarcinoma cell line growth inhibition [GQUAD]
Conditions: for IC50: curve of first compound; for viability, T/C: stronger effect = lower value
Excerpt: DNA G-quadruplex Stabilizer Agents in Combinations in Complex Spheroids
A high-throughput screen of multi-cell type tumor spheroids was designed to identify active combinations of DNA G-quadruplex stabilizer agents and targeted small molecules. Complex spheroids include a stromal component modeled by human endothelial cells (HUVEC) and fibroblasts modeled by human mesenchymal stem cells (MSCs). The concentration ranges selected for each drug and investigational agent were based upon clinically achievable concentrations if the clinical Cmax of the agent was known.
Compounds. The drugs and investigational agents: pidnarulex (CX-5461; NSC782164), APTO-253 (NSC789042), BRACO-19 (NSC847499), peposertib (NSC802822), ceralasertib (NSC780249), elimusertib (NSC800525), camonsertib (NSC841442), AZD-1390 (NSC803789), olaparib (NSC753686), talazoparib (NSC767125), ART-558 (NSC835418), sotorasib (NSC818433), MRTX-1133 (NSC836407), SN-38 (NSC673596), topotecan (NSC609699), etoposide (NSC141540), doxorubicin (NSC123127), gemcitabine (NSC613327), 5-fluorouracil (NSC19893), paclitaxel (NSC125973), vemurafenib (NSC761431), panobinostat (NSC761190), R-306465 (JNJ-16241199; NSC773264), adavosertib (NSC754352), TP-3654 (NSC805149), carboplatin (NSC241240), KSQ-4279 (NSC840948), and staurosporine (NSC755774) were obtained from the National Cancer Institute (NCI) Developmental Therapeutics Program Chemical Repository (34). The FDA-approved anticancer drug set is available from the NCI Developmental Therapeutics Program. […] The stock solutions were prepared in dimethyl sulfoxide (DMSO, Sigma-Aldrich, St. Louis, MO, cat. D2650) at 800-fold the tested concentration and stored at -70 degrees C prior to their use. All drugs and investigational agents were tested over a range starting from a high concentration at or near the clinical Cmax and decreasing in half-log increments. If the clinical Cmax for an agent had not been determined, the highest concentration tested was 10 microM.
2.3 Cell Culture. All cells were maintained in an incubator at 37 degrees C and 5% CO2 with 95% humidity. The PDC lines were cultured according to standard operating procedures established by the NCI PDMR. All PDCs were thawed and cultured in Matrigel-coated flasks prepared with a working solution of 1X Ham's F-12 nutrient mix, without supplementation (Invitrogen, cat. 11765054), 100 U/mL penicillin-streptomycin (Invitrogen, cat. 15140122), and 2.5% Matrigel (Corning Inc., cat. 354248) for the first three passages. The 857933-349-R-J2-PDC line was cultured in 6C/Colon 1B media, which includes advanced DMEM/F-12 (Thermo Fisher Scientific, cat. 12634028), 10 mM HEPES (Thermo Fisher Scientific, cat. 15630080), 1X GlutaMAX supplement (Thermo Fisher Scientific, cat. 35050061), 0.1 mg/mL primocin (InvivoGen, cat. ant-pm-2), 10% defined fetal bovine serum, heat inactivated (HyClone Laboratories Inc., cat. SH30070.03HI), 50% L-WRN conditioned media (ATCC, cat. CRL-3276), 1.25 mM N-Acetyl-L-cysteine (Sigma-Aldrich, cat. A9165), 10 mM nicotinamide (Sigma-Aldrich, cat. N0636), 1X B-27 supplement (Thermo Fisher Scientific, cat. 17504044), 1X N-2 supplement (Thermo Fisher Scientific, cat. 17502048), 10 microM Y-27632 dihydrochloride (Tocris Bioscience, cat. 1254), and 50 ng/mL human EGF recombinant protein (Thermo Fisher Scientific, cat. PHG0311). The 485176-168-R4-J1-PDC line was cultured in Panc media, which includes all 6C/Colon 1B media components plus 100 ng/mL human FGF-10 (Thermo Fisher Scientific, cat. 100-26), 500 nM SB-431542 (Selleckchem, cat. S1067), and gastrin (Tocris, cat. 3006).
[…]

[1] = second compound 0.0316 µM, first compound 0.0316 µM
[2] = second compound 0.0316 µM, first compound 0.1 µM
[3] = second compound 0.0316 µM, first compound 0.316 µM
[4] = second compound 0.0316 µM, first compound 1 µM
[5] = second compound 0.0316 µM, first compound 3.16 µM
[6] = second compound 0.0316 µM, first compound 10 µM
[7] = second compound 0.1 µM, first compound 0.0316 µM
[8] = second compound 0.1 µM, first compound 0.1 µM
[9] = second compound 0.1 µM, first compound 0.316 µM
[10] = second compound 0.1 µM, first compound 1 µM
[11] = second compound 0.1 µM, first compound 3.16 µM
[12] = second compound 0.1 µM, first compound 10 µM
[13] = second compound 0.316 µM, first compound 0.0316 µM
[14] = second compound 0.316 µM, first compound 0.1 µM
[15] = second compound 0.316 µM, first compound 0.316 µM
[16] = second compound 0.316 µM, first compound 1 µM
[17] = second compound 0.316 µM, first compound 3.16 µM
[18] = second compound 0.316 µM, first compound 10 µM
[19] = second compound 1 µM, first compound 0.0316 µM
[20] = second compound 1 µM, first compound 0.1 µM
[21] = second compound 1 µM, first compound 0.316 µM
[22] = second compound 1 µM, first compound 1 µM
[23] = second compound 1 µM, first compound 3.16 µM
[24] = second compound 1 µM, first compound 10 µM
[25] = second compound 3.16 µM, first compound 0.0316 µM
[26] = second compound 3.16 µM, first compound 0.1 µM
[27] = second compound 3.16 µM, first compound 0.316 µM
[28] = second compound 3.16 µM, first compound 1 µM
[29] = second compound 3.16 µM, first compound 3.16 µM
[30] = second compound 3.16 µM, first compound 10 µM
[31] = second compound 10 µM, first compound 0.0316 µM
[32] = second compound 10 µM, first compound 0.1 µM
[33] = second compound 10 µM, first compound 0.316 µM
[34] = second compound 10 µM, first compound 1 µM
[35] = second compound 10 µM, first compound 3.16 µM
[36] = second compound 10 µM, first compound 10 µM
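Also: spheroids exposed to the agents for seven days before readout.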
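For viability, T/C in this document: percent of vehicle control viability with DMSO wells as 100%.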

Structure (SMILES): C=CC(=O)N1CCN(c2nc(=O)n(-c3c(C)ccnc3C(C)C)c3nc(-c4c(O)cccc4F)c(F)cc23)C(C)C1 (centres undefined) + Cc1[nH]c2ccc(F)cc2c1-c1nc2c3cccnc3c3ncccc3c2[nH]1
- IC50 (second compound 0.0316 µM): > 10 µM
- IC50 (second compound 0.1 µM): > 10 µM
- IC50 (second compound 0.316 µM): > 10 µM
- IC50 (second compound 1 µM): > 10 µM
- IC50 (second compound 3.16 µM): < 0.0316 µM
- IC50 (second compound 10 µM): < 0.0316 µM
- viability, T/C [1]: 98.7%
- viability, T/C [2]: 69.3%
- viability, T/C [3]: 116%
- viability, T/C [4]: 126%
- viability, T/C [5]: 127%
- viability, T/C [6]: 83.8%
- viability, T/C [7]: 85%
- viability, T/C [8]: 131%
- viability, T/C [9]: 92.8%
- viability, T/C [10]: 109%
- viability, T/C [11]: 129%
- viability, T/C [12]: 97.8%
- viability, T/C [13]: 97.6%
- viability, T/C [14]: 106%
- viability, T/C [15]: 88.7%
- viability, T/C [16]: 73.9%
- viability, T/C [17]: 122%
- viability, T/C [18]: 104%
- viability, T/C [19]: 78.4%
- viability, T/C [20]: 84%
- viability, T/C [21]: 74.2%
- viability, T/C [22]: 71.2%
- viability, T/C [23]: 61%
- viability, T/C [24]: 80.4%
- viability, T/C [25]: 41.5%
- viability, T/C [26]: 27.6%
- viability, T/C [27]: 28.1%
- viability, T/C [28]: 42.5%
- viability, T/C [29]: 54.2%
- viability, T/C [30]: 32%
- viability, T/C [31]: 22.4%
- viability, T/C [32]: 24.8%
- viability, T/C [33]: 24.8%
- viability, T/C [34]: 16.2%
- viability, T/C [35]: 28.3%
- viability, T/C [36]: 22.4%

Structure (SMILES): CC(=O)O[C@H]1C(=O)[C@@]2(C)[C@H]([C@H](OC(=O)c3ccccc3)[C@]3(O)C[C@H](OC(=O)[C@H](O)[C@@H](NC(=O)c4ccccc4)c4ccccc4)C(C)=C1C3(C)C)[C@]1(OC(C)=O)CO[C@@H]1C[C@@H]2O + Cc1[nH]c2ccc(F)cc2c1-c1nc2c3cccnc3c3ncccc3c2[nH]1
- IC50 (second compound 0.0316 µM): > 10 µM
- IC50 (second compound 0.1 µM): > 10 µM
- IC50 (second compound 0.316 µM): > 10 µM
- IC50 (second compound 1 µM): < 0.0316 µM
- IC50 (second compound 3.16 µM): < 0.0316 µM
- IC50 (second compound 10 µM): < 0.0316 µM
- viability, T/C [1]: 67.5%
- viability, T/C [2]: 71.4%
- viability, T/C [3]: 74.7%
- viability, T/C [4]: 65.8%
- viability, T/C [5]: 63.8%
- viability, T/C [6]: 76.8%
- viability, T/C [7]: 83.2%
- viability, T/C [8]: 78.5%
- viability, T/C [9]: 78.1%
- viability, T/C [10]: 57.8%
- viability, T/C [11]: 69.2%
- viability, T/C [12]: 71%
- viability, T/C [13]: 63.4%
- viability, T/C [14]: 66.2%
- viability, T/C [15]: 52.5%
- viability, T/C [16]: 48.9%
- viability, T/C [17]: 51%
- viability, T/C [18]: 60%
- viability, T/C [19]: 41.5%
- viability, T/C [20]: 48.1%
- viability, T/C [21]: 53%
- viability, T/C [22]: 46.4%
- viability, T/C [23]: 47.2%
- viability, T/C [24]: 42.2%
- viability, T/C [25]: 41.6%
- viability, T/C [26]: 40.8%
- viability, T/C [27]: 40.1%
- viability, T/C [28]: 24.6%
- viability, T/C [29]: 29%
- viability, T/C [30]: 29.1%
- viability, T/C [31]: 25.7%
- viability, T/C [32]: 32.3%
- viability, T/C [33]: 26.7%
- viability, T/C [34]: 24.4%
- viability, T/C [35]: 21.9%
- viability, T/C [36]: 28%

— PubChem BioAssay AID2060494 (Molecular Pharmacology Branch, DTP, NCI, 2025)
